Assay results reported in ChEMBL document CHEMBL3396955, “Discovery of non-electrophilic capsaicinoid-type TRPA1 ligands” (Bioorg Med Chem Lett, 2015).

Legend:
Assay type in all cases: cell-based; call rule not given here
[1] = molecular target: T1, Transient receptor potential cation channel subfamily V member 1 (Homo sapiens, UniProt Q8NER1); assay: Agonist activity at human recombinant TRPV1 expressed in HEK293 cells assessed as Ca2+ influx by Fluo-4 dye based assay
[2] = molecular target: T1, Transient receptor potential cation channel subfamily V member 1; assay: Antagonist activity against human recombinant TRPV1 expressed in HEK293 cells assessed as inhibition of capsaicin-induced Ca2+ influx pre-treated 5 mins before capsaicin addition by Fluo-4 dye based assay
[3] = molecular target: T2, Transient receptor potential cation channel subfamily A member 1 (Rattus norvegicus, UniProt Q6RI86); assay: Antagonist activity against rat recombinant TRPA1 expressed in HEK293 cells assessed as inhibition of AITC-induced Ca2+ influx pre-treated 5 mins before capsaicin addition by Fluo-4 dye based assay
T2 sequence (Q6RI86 whole entry): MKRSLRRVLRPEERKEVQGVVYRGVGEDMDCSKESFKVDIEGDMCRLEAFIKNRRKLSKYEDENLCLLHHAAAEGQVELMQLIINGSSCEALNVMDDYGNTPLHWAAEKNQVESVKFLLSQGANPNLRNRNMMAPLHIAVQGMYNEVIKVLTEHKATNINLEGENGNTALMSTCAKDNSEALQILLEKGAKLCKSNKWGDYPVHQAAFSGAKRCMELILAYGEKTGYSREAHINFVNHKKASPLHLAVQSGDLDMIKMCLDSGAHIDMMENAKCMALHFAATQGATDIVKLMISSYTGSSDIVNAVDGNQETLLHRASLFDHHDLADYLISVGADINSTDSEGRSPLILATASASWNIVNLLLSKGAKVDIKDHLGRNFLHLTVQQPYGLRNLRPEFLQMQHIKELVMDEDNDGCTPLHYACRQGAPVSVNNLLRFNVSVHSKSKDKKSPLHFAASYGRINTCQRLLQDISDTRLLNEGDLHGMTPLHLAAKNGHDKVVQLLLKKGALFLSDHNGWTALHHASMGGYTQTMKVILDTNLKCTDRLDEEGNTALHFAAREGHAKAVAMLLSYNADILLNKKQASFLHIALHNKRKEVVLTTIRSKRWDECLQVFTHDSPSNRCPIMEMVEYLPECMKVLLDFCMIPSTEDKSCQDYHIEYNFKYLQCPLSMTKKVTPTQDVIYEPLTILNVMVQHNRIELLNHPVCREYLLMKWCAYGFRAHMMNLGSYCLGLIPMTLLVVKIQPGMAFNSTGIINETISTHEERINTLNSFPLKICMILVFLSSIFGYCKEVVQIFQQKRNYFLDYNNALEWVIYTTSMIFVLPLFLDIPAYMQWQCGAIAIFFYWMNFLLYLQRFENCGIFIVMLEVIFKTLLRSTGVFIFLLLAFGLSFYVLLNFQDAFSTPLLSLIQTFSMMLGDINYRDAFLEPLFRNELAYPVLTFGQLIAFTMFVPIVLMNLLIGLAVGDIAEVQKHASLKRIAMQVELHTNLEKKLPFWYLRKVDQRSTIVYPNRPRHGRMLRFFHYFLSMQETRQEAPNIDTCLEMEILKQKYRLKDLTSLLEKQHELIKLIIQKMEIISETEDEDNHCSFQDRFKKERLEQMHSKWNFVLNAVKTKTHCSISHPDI

[4] = molecular target: Transient receptor potential cation channel subfamily A member 1 (Rattus norvegicus) (UniProt Q6RI86); assay: Agonist activity at rat recombinant TRPA1 expressed in HEK293 cells assessed as Ca2+ influx by Fluo-4 dye based assay relative to 100 uM AITC
Sequence of Transient receptor potential cation channel subfamily A member 1 (Rattus norvegicus) (Q6RI86 whole entry): as above

[5] = molecular target: T1, Transient receptor potential cation channel subfamily V member 1; assay: Agonist activity at human recombinant TRPV1 expressed in HEK293 cells assessed as Ca2+ influx by Fluo-4 dye based assay relative to 4 uM ionomycin
[6] = molecular target: T2, Transient receptor potential cation channel subfamily A member 1; assay: Agonist activity at rat recombinant TRPA1 expressed in HEK293 cells assessed as Ca2+ influx by Fluo-4 dye based assay

T1 sequence (Q8NER1 whole entry): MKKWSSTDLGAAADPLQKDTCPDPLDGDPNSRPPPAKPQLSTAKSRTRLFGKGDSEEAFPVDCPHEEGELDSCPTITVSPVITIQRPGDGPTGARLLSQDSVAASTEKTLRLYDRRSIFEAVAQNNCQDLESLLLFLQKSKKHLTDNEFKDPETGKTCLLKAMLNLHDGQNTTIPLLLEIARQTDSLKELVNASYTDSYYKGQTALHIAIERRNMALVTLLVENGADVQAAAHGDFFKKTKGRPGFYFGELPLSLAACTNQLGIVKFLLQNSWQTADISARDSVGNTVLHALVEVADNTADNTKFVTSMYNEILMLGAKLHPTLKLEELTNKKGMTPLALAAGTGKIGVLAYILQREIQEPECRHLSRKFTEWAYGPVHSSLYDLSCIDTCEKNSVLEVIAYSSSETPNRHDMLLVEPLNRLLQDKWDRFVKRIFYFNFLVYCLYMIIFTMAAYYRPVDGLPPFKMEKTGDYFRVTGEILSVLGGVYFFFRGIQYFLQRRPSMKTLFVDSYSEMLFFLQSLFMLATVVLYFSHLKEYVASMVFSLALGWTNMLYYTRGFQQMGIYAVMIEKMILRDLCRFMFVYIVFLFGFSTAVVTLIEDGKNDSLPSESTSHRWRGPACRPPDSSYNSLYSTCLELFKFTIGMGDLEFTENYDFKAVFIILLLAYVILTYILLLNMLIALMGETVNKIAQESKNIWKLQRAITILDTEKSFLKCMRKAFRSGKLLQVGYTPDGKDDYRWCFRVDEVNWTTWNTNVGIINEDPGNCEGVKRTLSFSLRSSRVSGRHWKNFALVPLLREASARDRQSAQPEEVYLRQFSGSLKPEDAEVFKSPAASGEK

Structure (SMILES)	EC50 ([1]; read-out: EC50) [µM]	IC50 [2] [µM]	IC50 [3] [µM]	Efficacy [4] [%]	Efficacy [5] [%]	EC50 ([6]; read-out: EC50) [µM]	EC50 ([6]; hek293)	EC50 ([1]; hek293)
CCCCCCCCCn1nnc(-c2ccc(O)c(OC)c2)n1	6.9	36	1.71	65.9	28.5	1.41	–	–
COc1cc(CNC(=O)CCCC/C=C/C(C)C)ccc1O [CAPSAICIN]	–	–	–	–	–	–	Not Active	–
CCCCCC[C@H](C/C=C\CCCCCCCCn1nnc(-c2ccc(O)c(OC)c2)n1)OC(=O)Cc1ccccc1	–	> 100	2.9	72.6	< 10	0.81	–	Not Active
CCCCCC[C@@H](O)C/C=C\CCCCCCCCn1nnc(-c2ccc(O)c(OC)c2)n1	37.5	57.5	11.2	62.6	21	36.7	–	–
C=CCN=C=S	–	–	–	38.9	–	–	–	–
CCCCCCCC/C=C\CCCCCCCCn1nnc(-c2ccc(O)c(OC)c2)n1	5.5	> 100	1	83.1	24.2	0.83	–	–
